Reference: publication PMC3491841 (EMBO Molecular Medicine, 2012)

How the values were obtained:
Assay type in all cases: binding
[1] = target: T1, LdTOP1L (large subunit of L. donovani topoisomerase IB) (Leishmania donovani, UniProt A0A3Q8IHS4); test: intrinsic tryptophan fluorescence quenching
T1 sequence (A0A3Q8IHS4 1-635): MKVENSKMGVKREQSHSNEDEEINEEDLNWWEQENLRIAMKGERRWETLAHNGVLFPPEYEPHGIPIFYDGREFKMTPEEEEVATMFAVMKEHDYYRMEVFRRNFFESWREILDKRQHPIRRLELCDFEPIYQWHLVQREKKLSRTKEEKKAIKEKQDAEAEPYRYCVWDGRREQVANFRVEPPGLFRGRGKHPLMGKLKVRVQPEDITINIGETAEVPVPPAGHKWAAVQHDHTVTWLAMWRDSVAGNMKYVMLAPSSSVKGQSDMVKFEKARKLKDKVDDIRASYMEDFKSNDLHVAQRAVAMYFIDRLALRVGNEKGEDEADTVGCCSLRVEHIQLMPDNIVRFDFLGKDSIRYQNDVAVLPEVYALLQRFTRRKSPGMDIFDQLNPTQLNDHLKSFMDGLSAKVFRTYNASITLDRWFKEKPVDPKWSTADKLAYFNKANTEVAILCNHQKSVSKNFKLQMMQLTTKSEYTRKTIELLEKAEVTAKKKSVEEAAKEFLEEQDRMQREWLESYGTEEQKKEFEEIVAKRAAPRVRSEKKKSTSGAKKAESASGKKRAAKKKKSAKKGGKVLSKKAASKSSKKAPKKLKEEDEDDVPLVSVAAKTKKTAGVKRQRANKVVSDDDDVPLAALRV

[2] = target: T2, LdTOP1S (small subunit of L. donovani topoisomerase IB) (Leishmania donovani, UniProt Q8WQM6); test: intrinsic tryptophan fluorescence quenching
T2 sequence (Q8WQM6 1-262): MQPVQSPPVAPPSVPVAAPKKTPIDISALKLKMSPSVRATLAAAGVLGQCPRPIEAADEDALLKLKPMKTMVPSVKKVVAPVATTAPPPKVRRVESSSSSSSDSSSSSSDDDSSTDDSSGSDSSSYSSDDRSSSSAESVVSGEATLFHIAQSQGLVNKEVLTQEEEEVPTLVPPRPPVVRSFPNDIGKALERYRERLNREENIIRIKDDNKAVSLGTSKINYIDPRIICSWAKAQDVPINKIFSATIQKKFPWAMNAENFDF

[3] = target: T3, LdTOP1LS (reconstituted heterodimeric topoisomerase IB) (Leishmania donovani, UniProt A0A3Q8IHS4+Q8WQM6); test: tryptophan fluorescence quenching
T3 sequence (A0A3Q8IHS4 1-635): T1 sequence (A0A3Q8IHS4 1-635)
T3 sequence (Q8WQM6 1-262): T2 sequence (Q8WQM6 1-262)

- Kd [1]: 372 ± 260 nM
- Kd [2]: 169 ± 120 nM
- Kd [3]: 299 ± 160 nM
SMILES: COC[C@@H](Cc1ccc(OC)c(OC)c1)[C@@H](COC)Cc1cc(OC)c2c(c1)OCO2 [niranthin]
